Test results taken from patent US6783558B2, “Hair coloring method and composition” (Kao Corporation, priority 2001, dated 2004).

Tests used:
[1] = Dyeing of undamaged white goat tress with general composition, Examples 7-15; details: 0.02 g dyestuff in 10 g general composition (Table 6), 20 mins at 50° C
Description: the following general composition was prepared for each of pyrazolotriazole direct dyes DS-3, DS-4, DS-6, DS-7 and DS-12 to DS-16. Each composition was applied to one undamaged white goat tress for 20 mins at 50° C. (1 g of tress was covered by 1.5 to 2 g of composition). After 20 mins the tresses were rinsed, shampoo washed and then dried before the colour was assessed.

[2] = Measurement of pKa value by spectrophotometric titration; type: physicochemical; details: DMF/water (1/1) solution, 2×10^−5 mol/l, titrated from pH 2 with NaOH, visible ultra-violet absorption spectrum, read-out: pKa value determined
Description: The dissociative dye represents the dye that can release a proton and be anionic above a certain pH value. The pKa value can be determined by the following method: The sample is dissolved in a solution of a DMF/water (1/1) volume ratio to a final concentration of 2×10^−5 mol/l. After the resulting solution is adjusted to pH 2, using 1.0 mol/l hydrochloric acid, the solution is titrated with aqueous 1.0 mol/l sodium hydroxide solution. Recording the change of the visible ultra-violet absorption spectrum, the inflection point is determined by regression analysis.
pKa values of the dyestuffs DS-3 to DS-6, DS-7 and DS10 were determined by the following method: The dye was dissolved in a solution of a DMF/water (1/1) volume ratio to a final concentration of 2×10^−5 mol/l. After the resulting solution was adjusted to pH 2, using 1.0 mol/l hydrochloric acid, the solution was titrated with aqueous 1.0 mol/l sodium hydroxide solution. Recording the change of the visible ultra-violet absorption spectrum, the inflection point was determined by regression analysis.

[3] = Compatibility with hydrogen peroxide, Examples 18-21; set-up: species or system human; details: for Delta a (change in red colour): 0.02 g dyestuff in 10 g, undamaged human blond hair, 20 mins at 50° C; for stability to alkaline peroxide: composition with ammonia and hydrogen peroxide
Description: The following general compositions in Table 10 were prepared for each of pyrazolotriazole direct dyes DS-4 and DS-6.
Each composition was applied to one undamaged human blond hair for 20 mins at 50° C. After 20 mins the tresses were rinsed, shampoo washed and then dried before the colour was assessed.

Compound | Colouring Result [1] | Delta E [1] | L [1] | a [1] | b [1] | pKa [2] | Delta a (change in red colour) ([3]; H2O2 3 wt %) | Delta a (change in red colour) ([3]; H2O2 None) | stability to alkaline peroxide [3]
CC1=Nn2nc(C)nc2/C1=N\c1cc(Cl)c(O)c(Cl)c1 [DS-3] | Bright, intense magenta | 81 | 30 | 54 | −12 | 3.78 | – | – | –
Cc1nc2n(n1)N=C(C(C)(C)C)/C2=N/c1cc(Cl)c(O)c(Cl)c1 [DS-4] | Bright, intense magenta | 75 | 38 | 60 | 16 | 3.88 | 39 | 27 | stable to alkaline peroxide
CC1=Nn2c(C)nnc2/C1=N\c1cc(Cl)c(O)c(Cl)c1 [DS-5] | – | – | – | – | – | 4.34 | – | – | –
Cc1nnc2n1N=C(C(C)(C)C)/C2=N/c1cc(Cl)c(O)c(Cl)c1 [DS-6] | Bright pink | 55 | 57 | 42 | −7 | – | 30 | 15 | stable to alkaline peroxide
CC(C)c1nc2n(n1)N=C(C(C)(C)C)/C2=N/c1cc(Cl)c(O)c(Cl)c1 [DS-7] | Pink | 60 | 50 | 50 | −8 | 3.92 | – | – | –
CSc1nnc2n1N=C(c1ccccc1)/C2=N/c1cc(Cl)c(O)c(Cl)c1 [DS-12] | Violet | 59 | 48 | 29 | −26 | – | – | – | –
CC(C)c1nc2n(n1)N=C(c1ccccc1Cl)/C2=N/c1cc(Cl)c(O)c(Cl)c1 [DS-15] | Violet | 55 | 51 | 33 | −17 | – | – | – | –
CC(C)(C)C1=Nn2nc(-c3ccc(NS(C)(=O)=O)cc3)nc2/C1=N\c1cc(Cl)c(O)c(Cl)c1 [DS-16] | Bright pink | 52 | 55 | 41 | −3 | – | – | – | –
CC1=Nn2nc(C(C)CN)nc2/C1=N\c1cc(Cl)c(O)c(Cl)c1 (stereo not shown) [DS-10] | – | – | – | – | – | 3.38 | – | – | –
